Where two headings read alike, the source gives them in different places.
Key:
Type in all cases: cell-based
MCF-7 cells [1] = assay: Dose dependent cytotoxic response of MCF-7 cells, monolayer vs 3P scaffold (calcein AM/ethidium live cell count); conditions: for IC50: Homo sapiens, MCF7, 48 h, 48 hours of drug; for IC50 for 3P cultures relative to monolayer cultures: MCF7 cells, 3P scaffold vs monolayer
Method: MCF cells (7×10^3) were cultured on monolayer and 3P scaffold for 7 days then treated with different concentration of LY294002 and U0126 for 48 hours. Cells were stained with calcein/am and ethydium bromide then counted. Mean percentage of live cells (+/−SEM) were plotted as a function of drug concentration on and represents 4 replicates in 3 separate experiments. Box data points indicate monolayer and diamond data points indicate 3P scaffold.
To further explore the utility of the 3P scaffold as a tool to monitor chemotherapeutic prevention of EMT, MCF-7 breast cancer cells were treated with Doxorubicin and Ly294002 and U0126 inhibitors to prevent spheroid formation and examined for a differential dose-dependent response which was compared with response in monolayer 2D culture. […] The IC-50 of a drug is defined as the […] of a drug to inhibit biological or biochemical function.

tumor cells = assay: Doxorubicin sensitivity of tumor cells grown on 3PC scaffolds vs monolayer
Method: It was also determined that PLGA naked scaffolds are biocompatible and show increased tumorigenesis potential. From these observations, one can conclude that these 3D matrices can be used as a model to study cancer.

LLC spheroids [2] = assay: Drug efficacy on LLC spheroids grown on 3P scaffold (spheroid size and number)
Method: Drug efficacy analysis using 3P scaffold: To assess the ability of the 3P scaffold to monitor therapeutic efficacy to treat tumors, LLC spheroids were treated with different concentrations of the PI3K pathway inhibitor Ly294002 (1.0 μM, 0.1 μM, and 0.01 μM) and spheroid viability was assessed over a time period of 24 hours to 96 hours.

[3] = system: biopsy induced tumoroids (BITs); assay: Chemosensitivity of biopsy induced tumoroids (BITs) from FNAs of implanted LLC1 mouse tumors on 3P scaffolds; conditions: for IC50: Mus musculus, LLC1
Method: FIG. 17 illustrates biopsy tumoroids (day 2) treated with 1 μM each of LY294002 or U0126 for 3 days. The average size of biopsy tumoroids on 3P scaffolds (n=10 controls, 55 LY294002 and 50 U0126) is shown.
Culturing fine needle aspirates (FNAs) of implanted mouse tumors: LLC1 cells (5×10^5) were subcutaneously injected into the flanks of wild type C57BL/6 mice (National Cancer Institute). Tumor formation was monitored for 2 weeks after which tumor biopsies were collected by fine needle aspiration. Briefly, a 23-gauge needle was inserted into the tumor using a rotating motion and the tissue samples were flushed from the needle by attaching a syringe filled with tissue culture medium and expelling the contents into a sterile tube. This process was repeated twice. The three collected tumor samples were pooled and single cell suspensions were cultured on the scaffold.
Chemosensitivity of tumor biopsies grown on 3P scaffolds: To determine if the 3P scaffold can be utilized to culture tumor biopsies, single-cell suspensions of FNAs of implanted mouse tumors were cultured on 3P scaffolds. […] In addition to tumor cells, BITs were examined for the presence of stromal cells that are typical of in vivo tumor microenvironment (TME) (Mallela et al., (2013) Stem Cells 31: 1321-1329) by immunostaining with antibodies to respective cell surface markers.
To determine if the biopsy tumoroids cultured on 3P scaffolds can be utilized to assess drug sensitivity, FNA tumoroids were cultured in the presence or absence of the inhibitors, LY294002 and U0126.

MCF-7 cells [4] = assay: Inhibition of spheroid formation and EMT markers in MCF-7 cells on 3P scaffold
Method: (§1) To determine if treatment by these agents would deregulate EMT in fully formed spheroids, the same concentration of drugs were administered to LLC spheroids cultured at day 4.

LLC spheroids [5] = assay: EMT marker expression in fully formed LLC spheroids treated at day 4
Method: as §1

[6] = MCF-7 on 3P scaffold, read-out: IC-50
[7] = MCF-7 on monolayer, read-out: IC-50
[8] = 0.01 μM, 24 hours post treatment
[9] = 0.01 μM, 96 hours post treatment
[10] = 0.1 μM, 24 hours post treatment
[11] = 1.0 μM, 24 hours post treatment

COc1cccc2c1C(=O)c1c(O)c3c(c(O)c1C2=O)C[C@@](O)(C(=O)CO)C[C@@H]3O[C@H]1C[C@H](N)[C@H](O)[C@H](C)O1 [doxorubicin]
IC50 (MCF-7 cells [1]; [6]): 12 µM
IC50 (MCF-7 cells [1]; [7]): 0.6 µM
sensitivity of tumor cells compared to cells grown on monolayer (tumor cells): less sensitive

O=c1cc(N2CCOCC2)oc2c(-c3ccccc3)cccc12 [LY294002]
average decrease in spheroid size compared to untreated spheroids (LLC spheroids [2]; [8]): 17+/−12.5%
decrease in spheroid numbers (LLC spheroids [2]; [8]): 14.5+/−8.52%
decrease in spheroid numbers (LLC spheroids [2]; 0.01 μM, 48 hours): 40.3+/−2.44%
average decrease in spheroid size (LLC spheroids [2]; 0.01 μM, 48 hours post treatment): 28.9+/−9.3%
average decrease in spheroid size (LLC spheroids [2]; [9]): 63+/−5.9%
decrease in spheroid numbers (LLC spheroids [2]; [9]): 93.3+/−0.48%
average decrease in spheroid size compared to untreated spheroids (LLC spheroids [2]; [10]): 22.0+/−10.9%
decrease in spheroid numbers (LLC spheroids [2]; [10]): 26.8+/−4.38%
decrease in spheroid numbers (LLC spheroids [2]; 0.1 μM, 48 hours): 52.6+/−2.93%
average decrease in spheroid size (LLC spheroids [2]; 0.1 μM, 48 hours post treatment): 32.6+/−5.97%
average decrease in spheroid size compared to untreated spheroids (LLC spheroids [2]; [11]): 37.3+/−8.4%
decrease in spheroid numbers (LLC spheroids [2]; [11]): 37.4+/−3.8%
decrease in spheroid numbers (LLC spheroids [2]; 1.0 μM, 48 hours): 61.7+/−2.92%
average decrease in spheroid size (LLC spheroids [2]; 1.0 μM, 48 hours post treatment): 51.2+/−6.73%
IC50 (MCF-7 cells [1]; [6]): 1.15 µM
IC50 (MCF-7 cells [1]; [7]): 0.13 µM
IC50 for 3P cultures relative to monolayer cultures (MCF-7 cells [1]): 10 fold
IC50 ([3]; biopsy tumoroids (BITs) on 3P scaffold, read-out: IC50): > 1 µM

N#CC(=C(/N)Sc1ccccc1N)/C(C#N)=C(\N)Sc1ccccc1N [U0126]
IC50 (MCF-7 cells [1]; MCF-7 on 3P scaffold): 0.106 µM
IC50 (MCF-7 cells [1]; MCF-7 on monolayer): 0.0106 µM
IC50 for 3P cultures relative to monolayer cultures (MCF-7 cells [1]): 100 fold
spheroid formation and proliferation on 3P scaffolds (MCF-7 cells [4]; MCF-7 treated after 24 hours of culture, observed on day 4): prevented spheroid formation and proliferation
vimentin and E-cadherin expression (MCF-7 cells [4]; cells on 3P scaffold treated after 24 hours of culture): down regulating vimentin while maintaining E-cadherin expression
vimentin and E-cadherin expression (EMT inhibition) (LLC spheroids [5]): lack of vimentin expression and a concomitant expression of E-cadherin
growth of BITs ([3]; FNA tumoroids on 3P scaffold cultured with inhibitor): decreases in tumoroid size
IC50 [3]: > 1 µM

Reference: patent publication US9618501B2, “Three-dimensional fibrous scaffolds for cell culture” (University of South Florida, priority 2012, dated 2017)
